From patent US9492554B2, “Methods and compositions related to viral inhibition” (Clemson University Research Foundation (CURF), priority 2009, dated 2016)
Where two headings read alike, the source gives them in different places.

How the values were obtained:
TAR [1] = settings: argininamide binding site of TAR; read-out: binding constant; cited from earlier work
[2] = biological target: site 1 thymidylate synthetase RNA; settings: CC bubble of site 1 thymidylate synthetase RNA; read-out: binding constant; cited from earlier work
cells = test: 5% Toxicity concentration (concentration at which 5% or less cell death is seen)
HIV-1 TAR RNA = HIV-1 TAR RNA competition FRET binding assay (Tat peptide probe); settings: 100 nM TAR RNA, 100 nM Tat peptide, 25° C., 60 min
Description: Before used, HIV-1 TAR RNA (5′-GGC AGA UCUGAG CCU GGG AGC UCU CUG CC-3′, Thermo Scientific) in 10 μM batch in sterile water was heated to 95° C. for 4.5 min, and then cooled rapidly in ice bath for 5 min. This snap-cooling causes the RNA to adopt the kinetically favored hairpin rather than thermodynamically favored duplexes.
The relative affinity of each polyamine for HIV-1 TAR RNA was determined using Fluorescence Resonance Energy Transfer (FRET)-based competitive binding assay with a fluorescein-labeled HIV-1 Tat peptide as described in the literature. The fluorescence experiments were performed with a Spectra Max Fluorimeter (Molecular Devices) at 25° C., with excitation and emission wavelengths of 495 and 570 nm, respectively. All samples were prepared in 96 well plates in 1×TK buffer (50 mM Tris, 20 mM KCl, pH=7.4) with 0.1% Trixton-100 (Sigma).
To a solution of 100 nM HIV-1 TAR RNA and 100 nM fluorescein-labeled HIV-1 Tat peptide, appropriate concentrations (0 nM to 100 μM) of the antagonists were added at 25° C.; total volume of the incubation solution was 80 μL. After 60 min, fluorescence changes of the sample solution were determined by the Spectra Max Fluorimeter Detector.

HIV = test: Protection from HIV cytopathic effects; type: cell-based; settings: for Maximum protection: maximum protection from HIV cytopathic effects, water control 2%; for concentration at which maximum protection achieved, microM: value in parentheses beside maximum protection
TAR [3] = settings: ligands to TAR, from UV melting studies
Description: The bottom line represents the control which is TAR without any ligands. […] The reactions were done in the presence of 10 mM sodium cacodylate, 0.5 mM EDTA, 0.1 mM MgCl2 pH 7.0. The heating rate was 0.3° C./min.
(§1) UV melting studies of TAR were performed in the presence and absence of various ligands (FIG. 13).

TAR RNA [4] = test: ITC titration of TAR RNA with Neomycin; type: binding, HIV-1; settings: 20° C.
TAR RNA [5] = test: UV melting of TAR RNA in presence of ligands (Tm, ΔTm); type: binding, HIV-1; settings: Melting point stabilization of HIV-TAR RNA by Neo Neo dimers; Table 11
Description: The reactions were done in the presence of 10 mM sodium cacodylate, 0.5 mM EDTA, 0.1 mM MgCl2 pH 7.0. The heating rate was 0.3° C./min.
as §1

TAR RNA [6] = settings: inhibition of Tat peptide binding to the TAR RNA; cited from earlier work
TAR [7] = settings: binds TAR; read-out: affinity; cited from earlier work
HIV-1 RRE RNA = HIV-1 RRE RNA competition binding assay (fluorescence polarization, Rev peptide probe); settings: 100 nM RRE RNA, 10 nM Rev peptide, 25° C., 1 hour; Table 16
Description: Before used, HIV-1 RRE RNA (5′-GGUCUGGGCGCAGCGCAAGCUGACGGUACAGGCC-3′, Thermo Scientific) in 10 μM batch in sterile water was heated to 95° C. for 3 min, and then cooled to ambient temperature over 1 hour.
The relative affinity of each compound for HIV-1 RRE RNA was determined using fluorescence polarization-based competitive binding assay with a fluorescein-labeled HIV-1 Rev peptide. The anisotropy experiments were performed with a Spectra Max Fluorimeter (Molecular Devices) at 25° C., with excitation and emission wavelengths of 485 and 525 nm, respectively. All samples were prepared in 96 well plates in binding buffer (30 mM Hepes, 100 mM KCl, 40 mM NaCl, 10 mM NH4OAc, 10 mM Guanidinium Hydrochloride, 2 mM MgCl2, 0.5 mM EDTA, pH 7.4) with 0.01% triton-X100 (Sigma). The binding data reported for each conjugate are the averages of 3˜5 individual measurements.
A solution of 100 nM RRE RNA and 10 nM fluorescein-labeled HIV-1 Rev peptide was incubated at 25° C. After 10 min, appropriate concentrations (0 nM to 500 μM) of the antagonists were added; total volume of the incubation solution was […]. After 1 hour, the amount of the dissociated fluorescent probe was determined by the Spectra Max fluorescence plate reader. The experimental dose-response data for a given antagonist were fit to a sigmoidal dose-response nonlinear regression model on GraphPad Prism 4.0 to afford the IC50 values for each conjugates (Table 16).

Molecule: N=C(N)NCCC[C@H](N)C(N)=O [argininamide]
- Kd (TAR [1]): ~1 nM

Molecule: CN1CCN(c2ccc3[nH]c(-c4ccc5[nH]c(-c6ccc(O)cc6)nc5c4)nc3c2)CC1 [Hoechst 33258]
- Kd [2]: < 100 nM
- 5% Toxicity microM (cells): 18 µM
- IC50 (HIV-1 TAR RNA; Table 17): 6.6 ± 1.5 µM
- Maximum protection (HIV): 2%
- concentration at which maximum protection achieved, microM (HIV): (2) microM
- Binding Constant (TAR [3]): 420000 M⁻¹

Molecule: neomycin
- K (TAR RNA [4]): (6.61 ± 0.84) × 10^5
- ΔTm (TAR RNA [5]): 0.2 °C
- IC50 (HIV-1 TAR RNA; Table 17): 0.713 ± 0.165 µM
- Maximum protection (HIV): 9%
- concentration at which maximum protection achieved, microM (HIV): (206) microM
- IC50 (TAR RNA [6]): 0.92 ± 0.09 µM
- Binding Constant (TAR [3]): 170000 M⁻¹
- Kd (TAR [7]): ~6 µM

Molecule: [H]/N=C(/N)N[C@H]1[C@H](O)[C@@H](O)[C@H](O[C@@H]2O[C@@H](C)[C@](O)(C=O)[C@H]2O[C@@H]2O[C@@H](CO)[C@H](O)[C@@H](O)[C@@H]2NC)[C@@H](N/C(N)=N\[H])[C@@H]1O [DPA 506, streptomycin, reference compound]
- IC50 (HIV-1 RRE RNA): > 500 µM
- IC50 (HIV-1 TAR RNA; Table 18): 17.4 ± 4.3 µM
- IC50 (TAR RNA [6]): 9.5 ± 0.8 µM
